Patent publication US20020137929A1, “1 - (3-heterocyclylphenyl) isothiourea, -isourea, -guanidine and -amidine herbicidal agents” (Intellectual Property Department, BASF Aktiengesellschaft, priority 1998, published 2002)

Legend:
CYPSE (Flatsedge) [1] = test: Postemergence weed control under flooded paddy conditions; format: in vivo, Cyperus serotinus; details: postemergence weeds, rated 3 to 4 weeks after treatment
How it was run: (§1)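 Herbicidal effect is judged by eye on a 0–9 scale versus control, 3–4 weeks after dosing. Dosing is into flood water kept 1.5–3 cm over the soil, at about 0.0313–0.500 kg/ha in aqueous/acetone 50/50 v/v, on 3–5 cm weeds and 1.5–2.5-leaf rice seedlings.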

CYPSE (Flatsedge) [2] = test: Preemergence weed control under flooded paddy conditions; format: in vivo, Cyperus serotinus; details: rated 3-4 weeks after treatment
How it was run: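 Silt loam, seeds in top 0.5 cm; flood held 1.5-3 cm; test cpd as acetone/water 50/50 into flood water, ~0.0313-0.500 kg/ha a.i.; greenhouse 3-4 wk; visual 0-9 score vs control.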

[3] = test system: TRZAWR (Wheat, Winter, cv Riband); test: Preemergence herbicidal evaluation; format: in vivo, Triticum aestivum; details: preemergence, rated 4-5 weeks after treatment, 0-9 scale
How it was run: (§2)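 Each species is sown separately in potting soil over roughly an inch of soil before any emergence. The soil surface then receives an aqueous acetone spray delivering about 0.0156 to 0.500 kg/ha of compound. After four to five weeks, injury is scored from 0 to 9 relative to a control.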

ZEAMX (Corn, Field) [4] = test: Postemergence herbicidal evaluation; format: in vivo, Zea mays; details: postemergence
How it was run: (§3)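 Herbicidal effect was judged by eye on a 0–9 scale covering stand, vigor, deformity, size and chlorosis, compared with controls, four to five weeks after seedlings about two weeks old were sprayed (40 psi, ~0.0156–0.500 kg/ha).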

[5] = test system: ECHORC (Watergrass (Calif.)); test: Postemergence weed control under flooded paddy conditions; format: in vivo, Echinochloa oryzoides; details: postemergence weeds, rated 3 to 4 weeks after treatment
How it was run: as §1

ZEAMX (Corn, Field) [6] = test: Preemergence herbicidal evaluation; format: in vivo, Zea mays; details: preemergence, rated 4-5 weeks after treatment, 0-9 scale
How it was run: as §2

[7] = test system: ECHORC (Watergrass (Calif.)); test: Preemergence weed control under flooded paddy conditions; format: in vivo, Echinochloa oryzoides; details: rated 3-4 weeks after treatment
How it was run: (§4)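 Visual injury scored 0-9 against control three to four weeks post-treatment, greenhouse-grown. Application: acetone/water (50/50) solutions dosed directly into flood water (1.5-3 cm over silt loam, planted top 0.5 cm), roughly 0.0313 to 0.500 kg/ha active ingredient.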

[8] = test system: SAGPY (Arrowhead (Pygmaea)); test: Postemergence weed control under flooded paddy conditions; format: in vivo, Sagittaria pygmaea; details: postemergence weeds, rated 3 to 4 weeks after treatment
How it was run: as §1

CYPIR (Rice Flatsedge) [9] = test: Preemergence weed control under flooded paddy conditions; format: in vivo, Cyperus iria; details: rated 3-4 weeks after treatment
How it was run: as §4

SETVI (Foxtail, Green) [10] = test: Preemergence herbicidal evaluation; format: in vivo, Setaria viridis; details: preemergence, rated 4-5 weeks after treatment, 0-9 scale
How it was run: as §2

ORYSAT (Rice, Tebonnet) = test: Postemergence herbicidal evaluation; format: in vivo, Oryza sativa, (L.) Tebonnet; details: postemergence
How it was run: as §3

CYPIR (Rice Flatsedge) [11] = test: Postemergence weed control under flooded paddy conditions; format: in vivo, Cyperus iria; details: postemergence weeds, rated 3 to 4 weeks after treatment
How it was run: as §1

ECHCG (Barnyardgrass) = test: Preemergence herbicidal evaluation; format: in vivo, Echinochloa crus-galli; details: preemergence, rated 4-5 weeks after treatment, 0-9 scale
How it was run: as §2

SETVI (Foxtail, Green) [12] = test: Postemergence herbicidal evaluation; format: in vivo, Setaria viridis; details: postemergence
How it was run: as §3

Q: With `COC(=O)CC1SC(=Nc2cc(-n3c(=O)cc(C(F)(F)F)n(C)c3=O)c(F)cc2Cl)N(C)C1=O` (stereo not drawn) [Compound 88, Methyl 2-{{2-chloro-5-[3,6-dihydro-3-methyl-2,6-dioxo-4-(trifluoromethyl)-1(2H)-pyrimidinyl]-4-fluorophenyl}imino}-3-methyl-4-oxo-5-thiazolidineacetate] as the compound, how does the “Herbicidal rating CYPSE” value (CYPSE (Flatsedge) [1]; Rate 0.0313 kg/ha) read?
A: 3.0

Q: What about the “Herbicidal rating CYPSE” value (CYPSE (Flatsedge) [1]; Rate 0.0625 kg/ha) of the same compound?
A: 5.0

Q: And the “Herbicidal rating CYPSE” value (CYPSE (Flatsedge) [1]; Rate 0.1250 kg/ha)?
A: 7.0

Q: And the “Herbicidal rating CYPSE” value (CYPSE (Flatsedge) [1]; Rate 0.2500 kg/ha)?
A: 7.0

Q: And the “CYPSE herbicidal effect rating” value (CYPSE (Flatsedge) [2]; 0.0313 kg/ha)?
A: 3.0

Q: What about the “CYPSE herbicidal effect rating” value (CYPSE (Flatsedge) [2]; 0.0625 kg/ha) of the same compound?
A: 5.0

Q: What about the “CYPSE herbicidal effect rating” value (CYPSE (Flatsedge) [2]; 0.1250 kg/ha) of the same compound?
A: 7.0

Q: And the “CYPSE herbicidal effect rating” value (CYPSE (Flatsedge) [2]; 0.2500 kg/ha)?
A: 7.0

Q: What about the TRZAWR rating ([3]; 0.0156 kg/ha) of the same compound?
A: 0.0

Q: What about the TRZAWR rating ([3]; 0.0313 kg/ha) of the same compound?
A: 0.0

Q: What about the TRZAWR rating ([3]; 0.0625 kg/ha) of the same compound?
A: 0.0

Q: What about the TRZAWR rating ([3]; 0.1250 kg/ha) of the same compound?
A: 3.0

Q: What about the TRZAWR rating ([3]; 0.2500 kg/ha) of the same compound?
A: 9.0

Q: What about the ZEAMX herbicidal rating (ZEAMX (Corn, Field) [4]; rate 0.0158 kg/ha) of the same compound?
A: 7.5

Q: What about the ZEAMX herbicidal rating (ZEAMX (Corn, Field) [4]; rate 0.0315 kg/ha) of the same compound?
A: 8.5

Q: And the ZEAMX herbicidal rating (ZEAMX (Corn, Field) [4]; rate 0.0630 kg/ha)?
A: 9.0

Q: And the “Herbicidal rating ECHORC” value ([5]; Rate 0.0313 kg/ha)?
A: 6.0

Q: And the “Herbicidal rating ECHORC” value ([5]; Rate 0.0625 kg/ha)?
A: 6.0

Q: And the “Herbicidal rating ECHORC” value ([5]; Rate 0.1250 kg/ha)?
A: 6.0

Q: What about the “Herbicidal rating ECHORC” value ([5]; Rate 0.2500 kg/ha) of the same compound?
A: 7.0

Q: What about the ZEAMX rating (ZEAMX (Corn, Field) [6]; 0.0156 kg/ha) of the same compound?
A: 0.0

Q: What about the ZEAMX rating (ZEAMX (Corn, Field) [6]; 0.0313 kg/ha) of the same compound?
A: 0.0

Q: What about the ZEAMX rating (ZEAMX (Corn, Field) [6]; 0.0625 kg/ha) of the same compound?
A: 0.0

Q: What about the ZEAMX rating (ZEAMX (Corn, Field) [6]; 0.1250 kg/ha) of the same compound?
A: 6.0

Q: What about the ZEAMX rating (ZEAMX (Corn, Field) [6]; 0.2500 kg/ha) of the same compound?
A: 8.0

Q: And the “ECHORC herbicidal effect rating” value ([7]; 0.0313 kg/ha)?
A: 6.0

Q: What about the “ECHORC herbicidal effect rating” value ([7]; 0.0625 kg/ha) of the same compound?
A: 6.0

Q: And the “ECHORC herbicidal effect rating” value ([7]; 0.1250 kg/ha)?
A: 6.0

Q: And the “ECHORC herbicidal effect rating” value ([7]; 0.2500 kg/ha)?
A: 7.0

Q: What about the “Herbicidal rating SAGPY” value ([8]; Rate 0.0313 kg/ha) of the same compound?
A: 6.0

Q: What about the “Herbicidal rating SAGPY” value ([8]; Rate 0.0625 kg/ha) of the same compound?
A: 9.0

Q: And the “Herbicidal rating SAGPY” value ([8]; Rate 0.1250 kg/ha)?
A: 9.0

Q: What about the “Herbicidal rating SAGPY” value ([8]; Rate 0.2500 kg/ha) of the same compound?
A: 9.0

Q: And the “CYPIR herbicidal effect rating” value (CYPIR (Rice Flatsedge) [9]; 0.0313 kg/ha)?
A: 0.0

Q: And the “CYPIR herbicidal effect rating” value (CYPIR (Rice Flatsedge) [9]; 0.0625 kg/ha)?
A: 0.0

Q: And the “CYPIR herbicidal effect rating” value (CYPIR (Rice Flatsedge) [9]; 0.1250 kg/ha)?
A: 0.0

Q: And the “CYPIR herbicidal effect rating” value (CYPIR (Rice Flatsedge) [9]; 0.2500 kg/ha)?
A: 0.0

Q: What about the SETVI rating (SETVI (Foxtail, Green) [10]; 0.0156 kg/ha) of the same compound?
A: 0.0

Q: And the SETVI rating (SETVI (Foxtail, Green) [10]; 0.0313 kg/ha)?
A: 0.0

Q: And the SETVI rating (SETVI (Foxtail, Green) [10]; 0.0625 kg/ha)?
A: 3.0

Q: And the SETVI rating (SETVI (Foxtail, Green) [10]; 0.1250 kg/ha)?
A: 7.0

Q: What about the SETVI rating (SETVI (Foxtail, Green) [10]; 0.2500 kg/ha) of the same compound?
A: 9.0

Q: And the ORYSAT herbicidal rating (ORYSAT (Rice, Tebonnet); rate 0.0158 kg/ha)?
A: 2.0

Q: What about the ORYSAT herbicidal rating (ORYSAT (Rice, Tebonnet); rate 0.0315 kg/ha) of the same compound?
A: 5.5

Q: What about the ORYSAT herbicidal rating (ORYSAT (Rice, Tebonnet); rate 0.0630 kg/ha) of the same compound?
A: 6.0

Q: What about the “Herbicidal rating CYPIR” value (CYPIR (Rice Flatsedge) [11]; Rate 0.0313 kg/ha) of the same compound?
A: 0.0

Q: And the “Herbicidal rating CYPIR” value (CYPIR (Rice Flatsedge) [11]; Rate 0.0625 kg/ha)?
A: 0.0

Q: And the “Herbicidal rating CYPIR” value (CYPIR (Rice Flatsedge) [11]; Rate 0.1250 kg/ha)?
A: 0.0

Q: What about the “Herbicidal rating CYPIR” value (CYPIR (Rice Flatsedge) [11]; Rate 0.2500 kg/ha) of the same compound?
A: 0.0

Q: And the ECHCG rating (ECHCG (Barnyardgrass); 0.0156 kg/ha)?
A: 0.0

Q: What about the ECHCG rating (ECHCG (Barnyardgrass); 0.0313 kg/ha) of the same compound?
A: 0.0

Q: And the ECHCG rating (ECHCG (Barnyardgrass); 0.0625 kg/ha)?
A: 0.0

Q: What about the ECHCG rating (ECHCG (Barnyardgrass); 0.1250 kg/ha) of the same compound?
A: 0.0

Q: And the ECHCG rating (ECHCG (Barnyardgrass); 0.2500 kg/ha)?
A: 2.0

Q: And the SETVI herbicidal rating (SETVI (Foxtail, Green) [12]; rate 0.0158 kg/ha)?
A: 9.0

Q: And the SETVI herbicidal rating (SETVI (Foxtail, Green) [12]; rate 0.0315 kg/ha)?
A: 9.0

Q: And the SETVI herbicidal rating (SETVI (Foxtail, Green) [12]; rate 0.0630 kg/ha)?
A: 9.0
